Experiment [1] deals with T1, murine αMSH receptor (MC-1) (Mus musculus, UniProt Q01727).
T1 construct: excising the entire coding region of the αMSH^R (MC-1) cDNA insert comprising a 2.1 kb fragment; expressed in transfected cells; host or cells: human 293 cells, pcDNAI/neo, G418-selected
The experiment in a line: intracellular cAMP accumulation in 293 cells transfected with mouse αMSH receptor. Type of experiment: cell-based. As to conditions: 293 cells expressing murine αMSH receptor.
Description: After transfection, cells were cultured in DMEM media supplemented with 10% calf serum in a 3% CO2 atmosphere at 37° C. Selection was performed with neomycin (G418; GIBCO) at a concentration of 1000 μg/mL; selection was started 72 hr after transfection and continued for 3 weeks.
Following hormone treatment, the cells were washed twice with phosphate buffered saline and intracellular cAMP extracted by lysing the cells with 1 mL of 60% ethanol.

In a further experiment the target is T2, rat MC3-R (Rattus norvegicus, UniProt P32244).
T2 construct: The entire coding region of the MC-3 receptor cDNA insert; expressed in transfected cells; host or cells: human 293 cells, pcDNA/neo I, G418-selected
T2 sequence (P32244 whole entry): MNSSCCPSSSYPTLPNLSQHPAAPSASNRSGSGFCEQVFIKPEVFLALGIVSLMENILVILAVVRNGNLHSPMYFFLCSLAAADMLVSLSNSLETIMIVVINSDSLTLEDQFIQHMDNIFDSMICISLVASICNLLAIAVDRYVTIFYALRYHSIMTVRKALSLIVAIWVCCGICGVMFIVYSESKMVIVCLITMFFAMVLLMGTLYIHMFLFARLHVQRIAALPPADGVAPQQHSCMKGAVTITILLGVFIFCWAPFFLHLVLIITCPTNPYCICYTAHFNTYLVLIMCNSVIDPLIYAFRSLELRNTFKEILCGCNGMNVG
The experiment in a line: intracellular cAMP production in 293 cells expressing MC3-R. The experiment is classed as cell-based. Particulars: 1 h at 37° C.

For another experiment, the target named is human MC-4-R (Homo sapiens, UniProt P32245). As to conditions: Lu et al., 1994; cited from earlier work.
human MC-4-R, sequence (P32245 whole entry): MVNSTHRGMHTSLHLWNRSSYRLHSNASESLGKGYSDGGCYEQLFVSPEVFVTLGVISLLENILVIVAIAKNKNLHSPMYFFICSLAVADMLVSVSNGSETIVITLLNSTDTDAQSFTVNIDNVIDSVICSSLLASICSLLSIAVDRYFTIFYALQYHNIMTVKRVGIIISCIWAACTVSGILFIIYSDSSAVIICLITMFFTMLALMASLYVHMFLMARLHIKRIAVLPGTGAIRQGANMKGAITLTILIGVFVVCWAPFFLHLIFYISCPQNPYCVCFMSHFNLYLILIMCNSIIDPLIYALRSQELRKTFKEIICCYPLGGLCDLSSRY
A further experiment deals with T3, rat MC-3 receptor (Rattus norvegicus, UniProt P32244).
T3 construct: The entire coding region of the MC-3 receptor cDNA insert; expressed in transfected cells; host or cells: human 293 cells, pcDNA/neo I, G418-selected
T3 sequence (P32244 whole entry): as the sequence (P32244 whole entry) above
The experiment in a line: competition of [Nle4,D-Phe7]α-MSH binding to rat MC-3 receptor. Particulars: peptide about 60% pure; IC50 could not be determined. From the text:
[…]. In these experiments, murine agouti peptide was produced using a baculovirus system as described by Lu et al., (1994, Nature 371: 799-802), with the modification that the agouti peptide was purified from baculovirus supernatants by 0.6M NaCl step elution from an EconoS cation exchange column (BioRad). Agouti peptide used in these assays was approximately 60% pure.

Residues, ends and D or L forms follow the SMILES beside them.

For orientation: EC50 means the concentration giving half of the maximal effect. Low readings indicate higher potency in that assay, high ones lower potency in that assay.

T1 sequence (Q01727 whole entry, the tested form may be a part): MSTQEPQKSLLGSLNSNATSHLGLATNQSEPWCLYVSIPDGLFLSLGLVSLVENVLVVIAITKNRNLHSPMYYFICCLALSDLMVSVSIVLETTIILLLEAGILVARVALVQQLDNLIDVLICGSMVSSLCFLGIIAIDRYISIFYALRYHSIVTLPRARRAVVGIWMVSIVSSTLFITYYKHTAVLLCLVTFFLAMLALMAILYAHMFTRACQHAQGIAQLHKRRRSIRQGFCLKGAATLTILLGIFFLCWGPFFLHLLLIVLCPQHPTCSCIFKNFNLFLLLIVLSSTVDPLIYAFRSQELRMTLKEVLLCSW
Description for rat MC3-R: cAMP production assays as described above were also used to analyze expression of MC3-R in cells transfected with the expression vectors described herein as follows. […] Following hormone treatment, the cells were washed twice with phosphate buffered saline and intracellular cAMP extracted by lysing the cells with 1 mL of 60% ethanol.

With `CSCC[C@H](NC(=O)[C@H](CCCNC(=N)N)NC(=O)[C@H](Cc1ccc(O)cc1)NC(=O)[C@@H]1CCCN1C(=O)CNC(=O)[C@H](CCC(=O)O)NC(=O)[C@H](CC(=O)O)NC(=O)[C@H](CCCCN)NC(=O)[C@H](CCCCN)NC(=O)[C@H](CCC(=O)O)NC(=O)[C@H](C)N)C(=O)N[C@@H](CCC(=O)O)C(=O)N[C@@H](Cc1c[nH]cn1)C(=O)N[C@@H](Cc1ccccc1)C(=O)N[C@@H](CCCNC(=N)N)C(=O)N[C@@H](Cc1c[nH]c2ccccc12)C(=O)NCC(=O)N[C@@H](CO)C(=O)N1CCC[C@H]1C(=O)N1CCC[C@H]1C(=O)N[C@@H](CCCCN)C(=O)N[C@@H](CC(=O)O)C(=O)O` [βMSH], the “EC50 (intracellular cAMP)” value in experiment [1] (45 min at 37° C.) was “comparable to αMSH”. `CSCC[C@H](NC(=O)[C@@H](NC(=O)[C@@H](N)Cc1ccc(O)cc1)C(C)C)C(=O)NCC(=O)N[C@@H](Cc1c[nH]cn1)C(=O)N[C@@H](Cc1ccccc1)C(=O)N[C@@H](CCCNC(=N)N)C(=O)N[C@@H](Cc1c[nH]c2ccccc12)C(=O)N[C@@H](CC(=O)O)C(=O)N[C@@H](CCCNC(=N)N)C(=O)N[C@@H](Cc1ccccc1)C(=O)NCC(=O)N[C@@H](CCCNC(=N)N)C(=O)N[C@@H](CCCNC(=N)N)C(=O)N[C@@H](CC(N)=O)C(=O)NCC(=O)N[C@@H](CO)C(=O)N[C@@H](CO)C(=O)N[C@@H](CO)C(=O)N[C@@H](CO)C(=O)NCC(=O)N[C@H](C(=O)NCC(=O)NCC(=O)N[C@@H](C)C(=O)N[C@@H](C)C(=O)N[C@@H](CCC(N)=O)C(=O)O)C(C)C` [γ3-MSH] (H-YVMGHFRWDRFGRRNGSSSSGVGGAAQ-OH; N-terminus and C-terminus assumed) came in with a half-maximal effective concentration (EC50) on rat MC3-R of 6 nM. In the case of `CSCC[C@H](NC(=O)[C@@H](NC(=O)[C@@H](N)Cc1ccc(O)cc1)C(C)C)C(=O)NCC(=O)N[C@@H](Cc1c[nH]cn1)C(=O)N[C@@H](Cc1ccccc1)C(=O)N[C@@H](CCCNC(=N)N)C(=O)N[C@@H](Cc1c[nH]c2ccccc12)C(=O)N[C@@H](CC(=O)O)C(=O)N[C@@H](CCCNC(=N)N)C(=O)N[C@@H](Cc1ccccc1)C(N)=O` [γ-MSH, γ-melanocyte stimulating hormone], the “activity in elevating intracellular cAMP” value in experiment [1] is listed as “little or no activity”.

B1: agouti peptide: murine agouti peptide produced using a baculovirus system, approximately 60% pure (protein)
chain: HLALEETLGDDRSLRSNSSMNSLDFSSVSIVALNKKSKKISRKEAEKRKRSSKKKASMKKVARPPPPSPCVATRDSCKPPAPACCDPCASCQCRFFGSACTCRVLNPNC
Take B1: the “competition of αMSH activation” value with human MC-4-R is on record as “Specific competition”. The “competition of [Nle4,D-Phe7]α-MSH binding” value with rat MC-3 receptor is “Specific competition”.
